Key:
MDA-MB-435s-luc cells = assay: Mammary fat pad (MFP)-model tumor; type: in vivo, NMRI nude mice; details: 15 mg/kg i.v. three times a week
Method: FIG. 10. Anti-metastatic effect of JPH1701 on experimental metastasis model. Two millions of MDA-MB-435s-luc cells pre-treated for 24 hours with JPH1701 (1 μM) or vehicle were grafted in MFP of NMRI/Nude mice. Mice were treated three times a week with JPH1701 at 15 mg/kg in i.v. or with vehicle during all the experiments (14-15 weeks). The primary tumor was surgical removed when its volume attempted 500 mm3 (6-7 weeks post-graft). Mice were euthanized 7-8 weeks after surgical removed of the primary tumor. FIG. 10A-B) In vivo BLI of metastases from mice treated with vehicle (FIG. 10A) or with JPH1701 (FIG. 10B) before euthanasia. FIG. 10C) Number of tissue with metastases detected ex vivo by bioluminescence (including lymph nodes, lungs, rachis and bone legs) after euthanasia. FIG. 10D) Metastatic score of mice treated with vehicle or with JPH1701. Two parameters were used to assess the metastatic score of each mouse: (i) Number of tissue or organ with metastases detected ex vivo by BLI and (ii) BLI intensity (photon/min) of each metastasis. […] The score of each cohort (sum of individually score) represents the degree of metastatic development assessed in vivo by BLI.
Two millions of MDA-MB-435s-luc cells pre-treated for 24 hours with JPH1701 (1 μM) or vehicle were grafted in MFP of NMRI/Nude mice. […] Two weeks post-graft, primary tumors were measured, weekly, during 6 weeks in three dimensions with a caliper and tumor volume was calculated (black circles: vehicle, open circles: JPH1701). […] Two weeks post-graft, the number of cancer cells in the primary tumor was evaluated weekly during 6 weeks by BLI imaging (black circles: vehicle, open circles: JPH1701). […]
The growth of primary tumors was weekly evaluated by caliper measurement and by bioluminescence imaging (BLI). The tumor volume was calculated as length×width×depth and the primary tumor was surgical removed when its volume attempted 500 mm3 (6-7 weeks post graft). Mice were euthanized 8 weeks after tumor excision and metastases were detected ex vivo by bioluminescence imaging in lymph nodes, lungs, rachis, and bone legs. […]

MDA-MB-435s shSK3 = assay: Transwell motility of cells not expressing SK3; type: cell-based, human; details: 10 nM to 300 nM; non-specific effect at 1 μM, FIG. 6F
Method: FIG. 6: JPH1701 (or Ohmline) activity on cell motility on cancerous MDA-MB-435s cells and on non cancerous MCF-10A cells. The motility was tested by transwell assay. Additionally, viability tests were performed using MTT assays. FIG. 6A-B) JPH1701 (the concentrations of JPH1701, for the FIG. 6A, are 0 (control condition), 10 nM, 100 nM, 300 nM and 1 μM) reduces motility (FIG. 6A) of MDA-MB-435s wild type (WT) cells from 10 nM without affecting viability (FIG. 6B) except at 10 μM. FIG. 6C-D) MCF-10A motility (FIG. 6C) and viability (FIG. 6D) are not affected by JPH1701 (the concentrations of JPH1701, for the FIG. 6C, are 0 (control condition), 10 nM, 100 nM, 300 nM and 1 μM). FIG. 6E-F) Effect on SK3 dependent motility.
MDA-MB-435s and HEK293 cells were transduced with lentiviral vector at multiplicities of infection (MOI) of 1 to 3 in the presence of polybrene (4 μg/ml, Sigma). The transduction rate for MDA-MB-435s determined by counting GFP cells was close to 90%. In order to selection one clone of HEK293-SK3/KCa2.3 limit dilution were realized and each clone was tested in patch clamp with apamin and edelfosine and by western blotting in order to control expression of SK3/KCa2.3 channel.
At least three independent experiments were each performed in triplicate.

## hexadecyloxy-2-O-methyl-sn-glycerol-lactose [JPH1701]
MDA-MB-435s-luc cells; 14-15 weeks, FIG. 10D
  Metastatic score versus vehicle (Rank Sum Test): significantly different
MDA-MB-435s-luc cells; 6 weeks, FIG. 12B
  Number of cancer cells in the primary tumor (BLI) versus vehicle: did not highlighted any significant difference
MDA-MB-435s-luc cells; over 6 weeks, FIG. 12A
  Time course of primary tumor volume versus vehicle: no difference
MDA-MB-435s shSK3
  Effect on migration ability of cells not expressing SK3: does not affect

Reference: patent US9161944B2, “Method for preventing cancer metastasis” (INSERM (INSTITUT NATIONAL DE LA SANTE ET DE LA SANTE ET DE …, priority 2010, dated 2015)
